Measurements reported in US9499476B2, “Acetamide stereoisomer” (SUNOVION PHARMACEUTICALS INC., priority 2007, dated 2016).
Marks after values point to notes of the source that are not given here.

Columns and labels:
[1] = biological target: T1, human recombinant β1 receptors (Homo sapiens, UniProt P08588); assay: β1 radioligand binding assay
T1 construct: expressed in transfected cells; host or cells: CHO cells

[2] = biological target: T2, human recombinant β2 receptors (Homo sapiens, UniProt P07550); assay: β2 radioligand binding assay
[3] = biological target: T2, human recombinant β2 receptors; assay: Intrinsic activity assessment (β2), cAMP production in CHO cells; format: cell-based; settings: relative to procaterol, read-out: intrinsic activity (% response relative to procaterol-induced cAMP increase)
[4] = biological target: adrenergic β1 receptors (Cavia porcellus, UniProt H0W3H1); assay: β1 adrenergic functional activity, positive chronotropic effect in isolated right atria; design: species or system Dunkin Hartley Guinea pigs; settings: read-out: increase in heart rate, β1 functional assay
Source text: β1 and β2 Adrenergic Activity (Functional)
The concentration that gives 50% maximal effect is the EC50.

[5] = biological target: T3, adrenergic β2 receptors (Cavia porcellus, UniProt Q8K4Z4); assay: β2 adrenergic functional activity, relaxation of spontaneous tone of isolated trachea; design: species or system Dunkin Hartley Guinea pigs
T3 construct: from tissue; host or cells: isolated trachea, Dunkin Hartley guinea pig

[6] = Stability in aqueous buffered solutions (HPLC assay); format: physicochemical
Experimental: Stability in Aqueous Buffered Solutions
Solution Preparations: For each test compound, the following solutions are prepared.
• Solution A is prepared from ˜30 mg of the test compound in 150 mL of 0.005 M citrate buffer, pH 5.0 (˜0.2 mg/mL). • Solution B is prepared as follows: approximately 30 mL aliquot of Solution A is transferred to a separated container and the pH of the solution is adjusted to pH 3.0 with 1 N HCl (˜0.2 mL). • Solution C is prepared as follows: approximately 30 mL aliquot of Solution A is transferred to a separated container and the pH of the solution is adjusted to pH ˜8.0 with 1 N NaOH (˜0.2 mL). • Note: Because the volume of 1 N HCl or 1 N NaOH used for adjusting pH was negligible, the concentration of test compound in Solutions A, B and C were the same.
Storage Scheme • As soon as the above solutions were prepared, aliquots of each solution were transferred into 11 vials, of which 9 vials are stored at −20° C., and one each is stored at 30° C. and 40° C., respectively. • At each interval listed below, two vials are removed from −20° C. storage, and stored at 30° C. and 40° C., respectively. • The corresponding weeks under the storage condition (30° C. or 40° C.) are shown in the table below.
On Week 12, the last vial stored at −20° C. is removed and warmed up to the room temperature, which is the Day 0 Solution.
Sample Analysis: On Week 12, all solutions are assayed by an HPLC method using the Day 0 Solution at pH 5 as a standard solution. The test compounds were assayed by HPLC with UV detection (refer to Table 1 for method conditions).

T2 sequence (P07550 whole entry): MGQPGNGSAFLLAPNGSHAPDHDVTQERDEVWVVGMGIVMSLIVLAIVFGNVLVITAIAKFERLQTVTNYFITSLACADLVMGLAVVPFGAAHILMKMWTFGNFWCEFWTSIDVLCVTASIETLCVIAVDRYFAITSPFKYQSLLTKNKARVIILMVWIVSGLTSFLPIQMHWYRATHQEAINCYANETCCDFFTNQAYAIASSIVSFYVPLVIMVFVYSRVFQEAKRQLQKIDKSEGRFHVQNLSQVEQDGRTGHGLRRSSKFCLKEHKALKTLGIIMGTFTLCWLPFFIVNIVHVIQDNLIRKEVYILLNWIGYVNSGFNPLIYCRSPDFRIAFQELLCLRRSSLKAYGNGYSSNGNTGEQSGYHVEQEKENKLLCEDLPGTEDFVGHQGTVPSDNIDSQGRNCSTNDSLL
T3 sequence (Q8K4Z4 whole entry): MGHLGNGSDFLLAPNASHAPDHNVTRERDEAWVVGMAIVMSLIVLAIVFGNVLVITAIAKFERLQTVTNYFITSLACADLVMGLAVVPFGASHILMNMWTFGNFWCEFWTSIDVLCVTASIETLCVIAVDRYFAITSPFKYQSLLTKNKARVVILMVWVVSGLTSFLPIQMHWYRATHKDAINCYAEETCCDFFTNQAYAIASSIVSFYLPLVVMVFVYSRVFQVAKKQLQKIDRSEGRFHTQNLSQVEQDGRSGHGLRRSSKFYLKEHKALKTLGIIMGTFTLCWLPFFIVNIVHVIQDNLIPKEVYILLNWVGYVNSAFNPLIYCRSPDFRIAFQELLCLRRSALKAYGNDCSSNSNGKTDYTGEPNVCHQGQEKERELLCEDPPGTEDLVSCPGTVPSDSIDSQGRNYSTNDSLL
T1 sequence (P08588 whole entry): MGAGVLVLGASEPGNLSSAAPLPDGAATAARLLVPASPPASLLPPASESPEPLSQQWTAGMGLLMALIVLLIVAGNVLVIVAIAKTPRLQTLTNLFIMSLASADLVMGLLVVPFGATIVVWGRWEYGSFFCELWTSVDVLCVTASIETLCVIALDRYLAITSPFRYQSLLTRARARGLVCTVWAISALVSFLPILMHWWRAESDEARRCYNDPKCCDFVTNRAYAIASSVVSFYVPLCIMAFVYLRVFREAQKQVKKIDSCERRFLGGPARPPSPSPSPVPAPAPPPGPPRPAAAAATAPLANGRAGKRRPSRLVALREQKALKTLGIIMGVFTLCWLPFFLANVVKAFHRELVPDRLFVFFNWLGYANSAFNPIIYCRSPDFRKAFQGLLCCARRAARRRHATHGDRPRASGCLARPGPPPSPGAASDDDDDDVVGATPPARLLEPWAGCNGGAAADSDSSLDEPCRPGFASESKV
Chain of adrenergic β1 receptors (H0W3H1 1-470): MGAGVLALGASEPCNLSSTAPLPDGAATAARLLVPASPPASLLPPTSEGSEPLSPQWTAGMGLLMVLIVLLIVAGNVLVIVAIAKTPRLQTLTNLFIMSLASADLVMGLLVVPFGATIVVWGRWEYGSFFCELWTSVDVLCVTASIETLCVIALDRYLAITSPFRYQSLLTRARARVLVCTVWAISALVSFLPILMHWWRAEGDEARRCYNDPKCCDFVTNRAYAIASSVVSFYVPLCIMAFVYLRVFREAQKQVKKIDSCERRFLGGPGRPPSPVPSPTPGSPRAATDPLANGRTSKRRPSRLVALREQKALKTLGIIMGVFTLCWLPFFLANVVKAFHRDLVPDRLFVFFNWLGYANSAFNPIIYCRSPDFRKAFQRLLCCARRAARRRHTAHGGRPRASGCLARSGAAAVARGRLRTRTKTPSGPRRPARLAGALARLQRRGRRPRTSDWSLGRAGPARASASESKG

## CC(=O)Nc1cc([C@H](O)CN[C@H](C)Cc2ccc(O)cc2)ccc1O [Example 1, N-[2-hydroxy-5-[(1S)-1-hydroxy-2-[[(1R)-2-(4-hydroxyphenyl)-1-methylethyl]amino]ethyl]phenyl]acetamide]
[1]; at a concentration of 20 μM, read-out: inhibition of specific binding, β1 receptor
  inhibition at 20 µM: 30%
[1]; displacement of [125I]-cyanopidolol, CHO cells, read-out: Ki for the β1 receptor
  Ki: > 20000 nM
[2]; displacement of [3H]-CGP-12177, CHO cells, read-out: Ki for the β2 receptor
  Ki: 2210 nM
[2]; ratio of β1 to β2 binding Ki
  β1/β2 binding ratio: > 9
[3]
  Emax: 71%
[4]
  activation at 30 µM: 32%
[5]; isolated guinea pig trachea
  EC50: 120 nM
[5]; ratio of β1 to β2 functional EC50
  β1/β2 functional ratio: > 250
[6]; pH 3.0, 30° C., 0 wk
  % of Initial Concentration: 99.46%
[6]; pH 3.0, 30° C., 1 wk
  % of Initial Concentration: 100.03%
[6]; pH 3.0, 30° C., 2 wk
  % of Initial Concentration: 99.84%
[6]; pH 3.0, 30° C., 4 wk
  % of Initial Concentration: 101.41%
[6]; pH 3.0, 30° C., 8 wk
  % of Initial Concentration: 100.33%
[6]; pH 3.0, 30° C., 12 wk
  % of Initial Concentration: 100.29%
[6]; pH 3.0, 40° C., 0 wk
  % of Initial Concentration: 99.46%
[6]; pH 3.0, 40° C., 1 wk
  % of Initial Concentration: 99.89%
[6]; pH 3.0, 40° C., 2 wk
  % of Initial Concentration: 100.11%
[6]; pH 3.0, 40° C., 4 wk
  % of Initial Concentration: 99.54%
[6]; pH 3.0, 40° C., 8 wk
  % of Initial Concentration: 99.18%
[6]; pH 3.0, 40° C., 12 wk
  % of Initial Concentration: 97.17%
[6]; pH 3 or 5, stored at 30° C.
  time found to be very stable in aqueous solution: at least 12 weeks
[6]; pH 5.0, 30° C., 0 wk
  % of Initial Concentration: 100.25%
[6]; pH 5.0, 30° C., 1 wk
  % of Initial Concentration: 101.22%
[6]; pH 5.0, 30° C., 2 wk
  % of Initial Concentration: 101.07%
[6]; pH 5.0, 30° C., 4 wk, flagged out of trend
  % of Initial Concentration: 112.52* %
[6]; pH 5.0, 30° C., 8 wk
  % of Initial Concentration: 107.12%
[6]; pH 5.0, 30° C., 12 wk
  % of Initial Concentration: 107.75%
[6]; pH 5.0, 40° C., 0 wk
  % of Initial Concentration: 100.25%
[6]; pH 5.0, 40° C., 1 wk
  % of Initial Concentration: 102.00%
[6]; pH 5.0, 40° C., 2 wk
  % of Initial Concentration: 102.73%
[6]; pH 5.0, 40° C., 4 wk
  % of Initial Concentration: 102.94%
[6]; pH 5.0, 40° C., 8 wk, flagged out of trend
  % of Initial Concentration: 122.32* %
[6]; pH 5.0, 40° C., 12 wk, flagged out of trend
  % of Initial Concentration: 112.61* %
[6]; ~pH 8, 30° C., 0 wk
  % of Initial Concentration: 100.38%
[6]; ~pH 8, 30° C., 1 wk
  % of Initial Concentration: 99.64%
[6]; ~pH 8, 30° C., 2 wk
  % of Initial Concentration: 99.60%
[6]; ~pH 8, 30° C., 4 wk
  % of Initial Concentration: 96.62%
[6]; ~pH 8, 30° C., 8 wk, flagged out of trend
  % of Initial Concentration: 26.79* %
[6]; ~pH 8, 30° C., 12 wk
  % of Initial Concentration: 89.93%
[6]; ~pH 8, 40° C., 0 wk
  % of Initial Concentration: 100.38%
[6]; ~pH 8, 40° C., 1 wk
  % of Initial Concentration: 97.44%
[6]; ~pH 8, 40° C., 2 wk
  % of Initial Concentration: 93.75%
[6]; ~pH 8, 40° C., 4 wk
  % of Initial Concentration: 86.72%
[6]; ~pH 8, 40° C., 8 wk
  % of Initial Concentration: 72.25%
[6]; ~pH 8, 40° C., 12 wk
  % of Initial Concentration: 61.36%
other
  melting point: 97 to 100 °C
